Experimental data published in patent US20210292710A1, “METHOD FOR ENHANCING IMMUNE FUNCTION OF IMMUNE CELL AND IMMUNE CELL LINE PRODUCED USING THE SAME” (INDUSTRY-ACADEMIC COOPERATION FOUNDATION, YONSEI UNIVERSITY, priority 2020, published 2021).

Tested on: lung-cancer cell line LLC2
Experiment: Percentage of immune cells relative to lung-cancer cell line LLC2
Format: in vivo
From the text: Referring to FIG. 9B, the percentage of immune cells relative to the lung-cancer cell line LLC2 due to PI3K inhibitor treatment is shown. Referring first to FIG. 9B (a), the percentage of CD3+ CD8+ T cells relative to LLC2 as a lung-cancer cell line due to PI3K inhibitor treatment is shown. In this connection, CD3+ CD8+ T cells may refer to cytotoxic T cells (Tc cells) capable of destroying damaged cells, infected cells, and tumor cells. Next, referring to (b) of FIG. 9B, the percentage of CD3+ CD4+ CD25+ Foxp3 T cells relative to LLC2 as a lung-cancer cell line due to the PI3K inhibitor treatment is shown. In this connection, the CD3+ CD4+ CD25+ Foxp3 T cells refer to regulatory T cells (Treg) that may maintain immuno-tolerance and autoimmunity, that is, may inhibit the immune response of other cells. Next, referring to (c) of FIG. 9B, the percentage of CD3+ TIL cells relative to LLC2 as a lung-cancer cell line due to the PI3K inhibitor treatment is shown. In this connection, CD3+ TIL cell may refer to a tumor infiltrating lymphocyte (TIL) that infiltrates a tumor cell cluster, thereby enhancing the T cell's tumor killing ability, that is, an anti-cancer effect of the T cell. Next, referring to (d) of FIG. 9B, the percentage of MDSC cells relative to the lung-cancer cell line LLC2 due to the PI3K inhibitor treatment is shown. In this connection, the MDSC cell may refer to immature myeloid cells which inhibit the immune response of immune cells such as T cells and NK cells, and induce the generation of regulatory T cells (Treg), thereby to promote the growth of cancer cells.

Compound: Nc1cc(C(F)(F)F)c(-c2cc(N3CCOCC3)nc(N3CCOCC3)n2)cn1 [BKM 120, buparlisib]
- average percentage of CD3+ CD4+ CD25+ Foxp3 T cells (Treg) (35 mpk): 17%
- average percentage of CD3+ CD8+ T cells (35 mpk): 38%
- average percentage of MDSC cells (35 mpk): 32%
- distribution of percentage of CD3+ CD4+ CD25+ Foxp3 T cells (Treg) (35 mpk): 16 to 19%
- distribution of percentages of CD3+ CD8+ T cells (35 mpk): 35 to 42%
- distribution of the percentage of MDSC cells (35 mpk): 31 to 33%
- percentage of CD3+ TIL cells on average (35 mpk): 0.4%
- average percentage of CD3+ CD4+ CD25+ Foxp3 T cells (Treg) (50 mpk): 15%
- average percentage of CD3+ CD8+ T cells (50 mpk): 42%
- average percentage of MDSC cells (50 mpk): 24%
- distribution of percentage of CD3+ CD4+ CD25+ Foxp3 T cells (Treg) (50 mpk): 13 to 17%
- distribution of percentages of CD3+ CD8+ T cells (50 mpk): 37 to 50%
- distribution of the percentage of MDSC cells (50 mpk): 22 to 26%
- percentage of CD3+ TIL cells on average (50 mpk): 0.9%
